Test results taken from ChEMBL document CHEMBL3352267, “The design and implementation of a generic lipopeptide scanning platform to enable the identification of 'locally acting' agonists for the apelin receptor” (Bioorg Med Chem Lett, 2014).
The source made the active and inactive calls. The rule behind the calls is not given here. Residues, ends and D or L forms follow the SMILES beside them. *: point of attachment. Palmitoyl = CCCCCCCCCCCCCCCC(=O)*

How the values were obtained:
[1] = biological target: T1, D(1A) dopamine receptor (Homo sapiens, UniProt P21728); assay: Antagonist activity at D1A receptor (unknown origin) expressed in CHOK1 cells after 5 mins by HTRF cAMP immunoassay in presence of cAMP/SKF38393; type: functional, cell-based, CHO-K1
T1 sequence (P21728 whole entry): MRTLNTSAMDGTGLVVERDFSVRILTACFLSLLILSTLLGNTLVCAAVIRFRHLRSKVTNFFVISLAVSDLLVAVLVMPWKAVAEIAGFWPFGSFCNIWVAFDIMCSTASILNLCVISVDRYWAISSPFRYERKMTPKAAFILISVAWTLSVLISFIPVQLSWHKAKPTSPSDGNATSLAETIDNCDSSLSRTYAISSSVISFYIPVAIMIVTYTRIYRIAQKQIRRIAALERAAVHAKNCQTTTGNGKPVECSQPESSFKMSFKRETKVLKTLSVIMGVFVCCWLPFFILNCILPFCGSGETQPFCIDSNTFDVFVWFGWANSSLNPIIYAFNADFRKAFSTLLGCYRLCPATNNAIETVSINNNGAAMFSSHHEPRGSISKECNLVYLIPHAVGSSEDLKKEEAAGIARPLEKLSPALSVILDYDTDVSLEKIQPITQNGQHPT

[2] = biological target: T2, 5-hydroxytryptamine receptor 2B (Homo sapiens, UniProt P41595); assay: Agonist activity at 5HT2B receptor (unknown origin) expressed in CHOK1 cells after 3 mins by calcium flux/FLIPR assay; type: functional, cell-based, CHO-K1
T2 sequence (P41595 whole entry): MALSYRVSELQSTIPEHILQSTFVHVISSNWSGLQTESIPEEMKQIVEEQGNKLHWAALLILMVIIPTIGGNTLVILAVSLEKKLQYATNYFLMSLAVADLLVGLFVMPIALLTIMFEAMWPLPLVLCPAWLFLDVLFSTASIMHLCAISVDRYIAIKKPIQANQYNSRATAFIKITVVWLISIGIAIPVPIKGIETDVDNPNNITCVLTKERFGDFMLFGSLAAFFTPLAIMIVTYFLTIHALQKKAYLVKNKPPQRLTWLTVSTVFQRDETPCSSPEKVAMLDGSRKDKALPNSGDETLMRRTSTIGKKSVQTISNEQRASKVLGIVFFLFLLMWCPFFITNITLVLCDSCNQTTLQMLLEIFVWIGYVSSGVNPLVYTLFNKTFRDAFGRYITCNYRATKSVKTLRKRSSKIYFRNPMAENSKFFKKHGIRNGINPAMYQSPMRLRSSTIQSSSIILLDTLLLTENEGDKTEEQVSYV

[3] = biological target: T3, Cannabinoid receptor 1 (Homo sapiens, UniProt P21554); assay: Agonist activity at CB1 receptor (unknown origin) expressed in rat CHEM-1 cells after 3 mins by calcium flux/FLIPR assay; type: functional, cell-based
T3 sequence (P21554 whole entry): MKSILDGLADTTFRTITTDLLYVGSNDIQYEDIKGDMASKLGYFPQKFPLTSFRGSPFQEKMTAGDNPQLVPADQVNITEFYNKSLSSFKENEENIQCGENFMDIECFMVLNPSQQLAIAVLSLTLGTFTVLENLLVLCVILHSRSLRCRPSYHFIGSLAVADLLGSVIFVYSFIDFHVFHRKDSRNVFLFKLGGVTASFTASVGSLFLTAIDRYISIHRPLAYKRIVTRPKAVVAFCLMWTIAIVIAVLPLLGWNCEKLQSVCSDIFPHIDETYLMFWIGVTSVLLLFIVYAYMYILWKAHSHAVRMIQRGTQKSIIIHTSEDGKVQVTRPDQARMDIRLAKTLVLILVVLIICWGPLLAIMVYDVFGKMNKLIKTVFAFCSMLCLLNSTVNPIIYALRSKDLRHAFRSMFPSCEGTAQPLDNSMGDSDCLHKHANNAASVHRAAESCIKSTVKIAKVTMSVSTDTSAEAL

[4] = biological target: T4, Thromboxane A2 receptor (Homo sapiens, UniProt P21731); assay: Agonist activity at thromboxane A2 receptor (unknown origin) expressed in HEK293-EBNA cells after 3 mins by calcium flux/FLIPR assay; type: functional, cell-based
T4 sequence (P21731 whole entry): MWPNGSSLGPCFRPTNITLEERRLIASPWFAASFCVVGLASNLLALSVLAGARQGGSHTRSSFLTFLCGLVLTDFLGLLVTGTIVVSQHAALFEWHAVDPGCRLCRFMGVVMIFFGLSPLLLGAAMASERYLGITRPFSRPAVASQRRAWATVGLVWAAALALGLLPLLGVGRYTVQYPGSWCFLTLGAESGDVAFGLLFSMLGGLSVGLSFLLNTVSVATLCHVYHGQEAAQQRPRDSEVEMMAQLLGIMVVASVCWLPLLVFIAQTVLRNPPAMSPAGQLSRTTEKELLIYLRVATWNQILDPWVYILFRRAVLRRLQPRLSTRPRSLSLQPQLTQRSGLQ

[5] = biological target: T5, Muscarinic acetylcholine receptor M2 (Homo sapiens, UniProt P08172); assay: Antagonist activity at muscarinic acetylcholine receptor M2 (unknown origin) expressed in CHOK1 cells after 15 mins by calcium flux/FLIPR assay in presence of acetylcholine; type: functional, cell-based, CHO-K1
T5 sequence (P08172 whole entry): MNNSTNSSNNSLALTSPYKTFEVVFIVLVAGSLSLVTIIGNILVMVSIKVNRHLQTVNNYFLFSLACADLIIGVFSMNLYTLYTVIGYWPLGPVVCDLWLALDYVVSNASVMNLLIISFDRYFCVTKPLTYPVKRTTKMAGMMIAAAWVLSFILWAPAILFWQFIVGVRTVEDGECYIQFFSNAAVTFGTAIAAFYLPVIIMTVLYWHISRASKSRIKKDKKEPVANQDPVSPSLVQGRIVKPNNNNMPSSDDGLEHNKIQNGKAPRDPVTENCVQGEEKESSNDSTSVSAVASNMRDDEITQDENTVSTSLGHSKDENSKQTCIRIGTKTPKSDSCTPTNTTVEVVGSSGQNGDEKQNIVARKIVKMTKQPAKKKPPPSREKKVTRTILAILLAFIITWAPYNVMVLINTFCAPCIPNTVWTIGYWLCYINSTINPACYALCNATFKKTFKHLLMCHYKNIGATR

[6] = biological target: Sphingosine 1-phosphate receptor Edg-5/Sphingosine 1-phosphate receptor Edg-3 (Homo sapiens) (UniProt O95136+Q99500); assay: Agonist activity at S1P2/3 receptor in HEK293 cells assessed as inhibition of forskolin-induced cAMP level after 1 hr by alphascreen immunoassay; type: functional, cell-based
[7] = biological target: T5, Muscarinic acetylcholine receptor M2; assay: Agonist activity at muscarinic acetylcholine receptor M2 (unknown origin) expressed in CHOK1 cells after 3 mins by calcium flux/FLIPR assay; type: functional, cell-based, CHO-K1
[8] = biological target: T6, 5-hydroxytryptamine receptor 1A (Homo sapiens, UniProt P08908); assay: Agonist activity at 5HT1A receptor (unknown origin) expressed in HeLa cells after 3 mins by calcium flux/FLIPR assay; type: functional, cell-based
T6 sequence (P08908 whole entry): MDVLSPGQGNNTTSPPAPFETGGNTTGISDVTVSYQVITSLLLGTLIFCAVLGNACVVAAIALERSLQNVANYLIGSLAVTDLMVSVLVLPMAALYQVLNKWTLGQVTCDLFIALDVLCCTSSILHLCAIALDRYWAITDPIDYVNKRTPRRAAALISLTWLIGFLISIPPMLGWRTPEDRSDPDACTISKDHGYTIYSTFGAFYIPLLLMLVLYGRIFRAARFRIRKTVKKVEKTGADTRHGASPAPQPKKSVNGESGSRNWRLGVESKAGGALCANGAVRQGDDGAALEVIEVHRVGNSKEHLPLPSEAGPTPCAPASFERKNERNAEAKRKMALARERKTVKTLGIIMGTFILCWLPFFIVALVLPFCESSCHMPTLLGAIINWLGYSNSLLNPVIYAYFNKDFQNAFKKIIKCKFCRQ

[9] = biological target: T7, D(4) dopamine receptor (Homo sapiens) (UniProt P21917); assay: Agonist activity at human D4 receptor expressed in Chem-5 cells assessed as calcium mobilization by FLIPR assay; type: functional, cell-based
T7 sequence (whole entry): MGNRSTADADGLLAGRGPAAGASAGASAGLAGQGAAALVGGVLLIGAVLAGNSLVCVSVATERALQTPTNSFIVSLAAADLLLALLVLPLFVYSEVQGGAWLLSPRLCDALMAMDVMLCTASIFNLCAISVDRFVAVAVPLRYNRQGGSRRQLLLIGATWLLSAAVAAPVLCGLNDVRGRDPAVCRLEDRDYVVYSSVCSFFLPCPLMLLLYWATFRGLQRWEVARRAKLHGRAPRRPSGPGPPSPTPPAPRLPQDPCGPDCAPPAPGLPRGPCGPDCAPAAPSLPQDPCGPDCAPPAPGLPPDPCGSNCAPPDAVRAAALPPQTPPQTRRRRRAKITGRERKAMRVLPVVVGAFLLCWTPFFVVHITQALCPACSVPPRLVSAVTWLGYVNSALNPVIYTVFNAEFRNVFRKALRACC

[10] = biological target: T3, Cannabinoid receptor 1; assay: Antagonist activity at CB1 receptor (unknown origin) expressed in rat CHEM-1 cells after 15 mins by calcium flux/FLIPR assay in presence of CP55940; type: functional, cell-based
[11] = biological target: Beta-2 adrenergic receptor (Homo sapiens, UniProt P07550); assay: Agonist activity at beta-2 adrenergic receptor (unknown origin) expressed in CHOK1 cells by HTRF cAMP immunoassay; type: functional, cell-based, CHO-K1
Beta-2 adrenergic receptor, sequence (P07550 whole entry): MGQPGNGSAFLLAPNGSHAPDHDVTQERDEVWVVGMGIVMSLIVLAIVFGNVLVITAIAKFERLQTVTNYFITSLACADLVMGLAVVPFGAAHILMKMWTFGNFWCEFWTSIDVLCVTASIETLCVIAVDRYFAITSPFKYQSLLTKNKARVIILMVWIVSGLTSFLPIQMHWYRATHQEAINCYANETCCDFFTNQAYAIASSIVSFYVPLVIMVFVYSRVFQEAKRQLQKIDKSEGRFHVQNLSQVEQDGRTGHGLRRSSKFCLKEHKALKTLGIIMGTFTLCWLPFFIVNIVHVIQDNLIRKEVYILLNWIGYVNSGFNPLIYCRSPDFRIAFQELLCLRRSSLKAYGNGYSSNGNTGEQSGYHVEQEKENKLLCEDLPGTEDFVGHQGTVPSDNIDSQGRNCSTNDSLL

[12] = biological target: T4, Thromboxane A2 receptor; assay: Antagonist activity at thromboxane A2 receptor (unknown origin) expressed in HEK293-EBNA cells after 15 mins by calcium flux/FLIPR assay in presence of U-46619; type: functional, cell-based
[13] = biological target: T8, 5-hydroxytryptamine receptor 2A (Homo sapiens, UniProt P28223); assay: Antagonist activity at 5HT2A receptor (unknown origin) expressed in CHOK1 cells after 15 mins by calcium flux/FLIPR assay in presence of 5HT; type: functional, cell-based, CHO-K1
T8 sequence (P28223 whole entry): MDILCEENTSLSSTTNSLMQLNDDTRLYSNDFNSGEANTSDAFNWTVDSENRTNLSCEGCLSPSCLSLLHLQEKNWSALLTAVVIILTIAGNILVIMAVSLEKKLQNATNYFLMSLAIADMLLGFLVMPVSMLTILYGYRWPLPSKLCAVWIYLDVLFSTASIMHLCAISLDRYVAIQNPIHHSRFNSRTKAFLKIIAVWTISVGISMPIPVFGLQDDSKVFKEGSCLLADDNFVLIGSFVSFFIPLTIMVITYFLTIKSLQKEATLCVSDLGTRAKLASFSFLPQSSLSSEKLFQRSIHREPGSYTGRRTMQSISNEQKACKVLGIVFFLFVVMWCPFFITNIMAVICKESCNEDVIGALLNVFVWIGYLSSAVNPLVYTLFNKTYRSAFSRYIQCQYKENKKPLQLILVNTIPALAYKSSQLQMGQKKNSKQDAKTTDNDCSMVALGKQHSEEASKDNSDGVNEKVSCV

[14] = biological target: T8, 5-hydroxytryptamine receptor 2A; assay: Agonist activity at 5HT2A receptor (unknown origin) expressed in CHOK1 cells after 3 mins by calcium flux/FLIPR assay; type: functional, cell-based, CHO-K1
[15] = biological target: T9, Alpha-1A adrenergic receptor (Homo sapiens, UniProt P35348); assay: Agonist activity at alpha-1A adrenergic receptor (unknown origin) expressed in CHOK1 cells after 3 mins by calcium flux/FLIPR assay; type: functional, cell-based, CHO-K1
T9 sequence (P35348 whole entry): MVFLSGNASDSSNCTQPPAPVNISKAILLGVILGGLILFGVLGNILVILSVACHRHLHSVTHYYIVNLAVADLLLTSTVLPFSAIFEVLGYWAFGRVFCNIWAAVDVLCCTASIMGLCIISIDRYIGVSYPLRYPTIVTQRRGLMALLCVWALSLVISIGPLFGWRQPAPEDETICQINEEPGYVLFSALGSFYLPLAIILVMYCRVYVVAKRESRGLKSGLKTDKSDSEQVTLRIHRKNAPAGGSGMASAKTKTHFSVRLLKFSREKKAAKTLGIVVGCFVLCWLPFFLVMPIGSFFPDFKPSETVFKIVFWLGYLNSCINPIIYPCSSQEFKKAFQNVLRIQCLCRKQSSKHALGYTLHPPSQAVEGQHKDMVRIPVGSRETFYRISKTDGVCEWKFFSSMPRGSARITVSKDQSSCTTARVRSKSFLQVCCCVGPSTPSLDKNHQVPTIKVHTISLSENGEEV

[16] = biological target: T1, D(1A) dopamine receptor; assay: Agonist activity at D1A receptor (unknown origin) expressed in CHOK1 cells by HTRF cAMP immunoassay; type: functional, cell-based, CHO-K1
[17] = biological target: T6, 5-hydroxytryptamine receptor 1A; assay: Antagonist activity at 5HT1A receptor (unknown origin) expressed in HeLa cells after 15 mins by calcium flux/FLIPR assay in presence of R-(+)-8-OH-DPAT; type: functional, cell-based
[18] = biological target: T9, Alpha-1A adrenergic receptor; assay: Antagonist activity at alpha-1A adrenergic receptor (unknown origin) expressed in CHOK1 cells after 15 mins by calcium flux/FLIPR assay in presence of A-61603; type: functional, cell-based, CHO-K1
[19] = biological target: T2, 5-hydroxytryptamine receptor 2B; assay: Antagonist activity at 5HT2B receptor (unknown origin) expressed in CHOK1 cells after 15 mins by calcium flux/FLIPR assay in presence of BW723C86; type: functional, cell-based, CHO-K1

CCCCCCCCCCCCCCCC(=O)N[C@H](C(=O)N[C@H](C(=O)N[C@@H](CC(C)C)C(=O)N1CCC[C@H]1C(=O)N[C@@H](CC(C)C)C(=O)N[C@@H](Cc1c[nH]c2ccccc12)C(=O)N[C@@H](C)C(=O)N[C@H](C(=O)N[C@@H](Cc1ccc(O)cc1)C(=O)N[C@H](C(=O)N[C@@H](Cc1ccc(O)cc1)C(=O)N[C@@H](CCCNC(=N)N)C(N)=O)[C@@H](C)O)[C@@H](C)O)[C@@H](C)O)C(C)C (Palmitoyl-VTLPLWATYTYR-NH2)
IC50 [1]: > 30 µM
EC50 [2]: > 30 µM
EC50 [3]: > 30 µM
EC50 [4]: > 30 µM
IC50 [5]: > 30 µM
Activity [6]: inactive
EC50 [7]: > 30 µM
EC50 [8]: > 30 µM
Activity [9]: inactive
IC50 [10]: > 30 µM
EC50 [11]: > 30 µM
IC50 [12]: > 30 µM
IC50 [13]: > 30 µM
EC50 [14]: > 30 µM
EC50 [15]: > 30 µM
EC50 [16]: > 30 µM
IC50 [17]: > 30 µM
IC50 [18]: > 30 µM
IC50 [19]: > 30 µM
